The record followed here is US20240252486A1, “ALGOSTATIC AGENTS FOR PREVENTING TRANSITION FROM ACUTE TO CHRONIC PAIN” (The Regents of the University of California, priority 2021, published 2024).

Molecules are shown by their SMILES.

Assay type in all cases: in vivo, mouse
Experiment [1] deals with PEA levels in ipsilateral lumbar spinal cord (L4-L6). The experiment can be described thus: PEA quantification in lumbar spinal cord (LC/MS-MS). The conditions noted are these: post-formalin ARN19702 30 mg-kg^−1 IP on PFD2-4; 2 h after administration. The procedure: Lipid extraction: Lumbar L4-L6 spinal cord fragments (˜15 mg each) were transferred into 2 ml Precellys® soft tissue tubes (Bertin Instruments, France) and diluted with ice-cold acetone (1 ml) containing [2H4]-PEA (50 μl, 100 nM) Samples were homogenized at 4° C., 6000 rpm, 15 s/cycle for 2 cycles with 20 s pause in between cycles. Supernatants were transferred into 8-ml glass vials and dried under nitrogen. Chloroform/methanol (2/1, vol, 3 ml) and water (1 ml) were added to the samples, which were then stirred vigorously and centrifuged at 830×g for 15 min at 4° C. The lower (organic) phases were collected and upper phases were extracted again with chloroform (2 ml) and combined with the previous extract. Extracts were dried under nitrogen, reconstituted in acetonitrile (0.1 ml), transferred to deactivated glass inserts and placed inside amber glass vials for liquid chromatography/tandem mass spectrometry (LC/MS-MS) analyses.
PEA quantification: PEA was fractionated using a 1260 series LC system (Agilent Technologies, Santa Clara, CA) coupled to a 6460C triple-quadrupole mass spectrometric detector (MSD; Agilent). […] The MSD was operated in the positive electrospray ionization mode, and analytes were quantified by multiple reaction monitoring. […]

In experiment [2] the test system is formalin-injected mice. In words: Elevated plus maze test (anxiety-like behavior) after formalin. The settings on record: ARN19702 30 mg-kg^−1 IP once daily for 3 days starting 24 h after formalin; PFD7. As for the experimental part:
Elevated plus maze test: We placed each mouse in the central platform of the maze, facing the open arm opposite to the experimenter, and behavior was recorded using the Debut video capture software (NCH Software, Canberra, Australia). A blinded observer measured the amount of time spent in the open and closed arms, as well as the number of open and closed arm entries. The open arms of the maze were illuminated at 150-170 lux and the closed arms at 40-50 lux.
Elevated plus maze test: We placed each mouse in the central platform of the maze, facing the open arm opposite to the experimenter, and behavior was recorded using the Debut video capture software (NCH Software, Canberra, Australia). A blinded observer measured the amount of time spent in the open and closed arms, as well as the number of open and closed arm entries. The open arms of the maze were illuminated at 150-170 lux and the closed arms at 40-50 lux. The anxiety index was calculated as follows: […]

Experiment [3] relates to formalin-injected mice. The experiment can be described thus: Conditioned place preference (spontaneous/ongoing pain) after formalin. The settings on record: ARN19702 30 mg-kg^−1 IP once daily for 3 days starting 24 h after formalin; PFD14. The procedure:
Preconditioning: 12 days after tissue damage, mice were placed in the two chamber CPP apparatus (for details see (63)) and the time spent in each chamber was recorded for 10 min and analyzed to determine preconditioning baseline.
Conditioning: Mice underwent single trial conditioning 24 h after preconditioning using a biased approach. In the morning of the conditioning day, animals received saline and were immediately placed into the preferred chamber (saline paired) of the CPP box for 30 min, with no access to the other chambers. Approximately 4 h later, mice received gabapentin (50 mg-kg^−1, IP) and were immediately confined in the non-preferred chamber for 30 min (gabapentin paired).
Preference test: On the test day (POD14 or PFD14), 12 h after the afternoon pairing, mice were placed back into the center of the CPP chambers with free access to all chambers for 10 min. Time (s) spent in each chamber was recorded and evaluated by a blind observer to determine preference.

For `CCS(=O)(=O)c1ccccc1C(=O)N1CCN(c2nc3ccc(F)cc3s2)C[C@@H]1C` [ARN19702], in experiment [1], the “PEA levels in ipsilateral lumbar spinal cord (L4-L6)” value is given as “normalized”. The anxiety-like behavior entry in experiment [2] is reported as “normalizing”. Further, the ongoing pain result in experiment [3] is “normalizing”.
